{
  "source": "patent US10189839B2",
  "about": "“Tricyclic imidazole compounds as inhibitors of tryptophan hydroxylase” (ACTELION PHARMACEUTICALS LTD, priority 2013, dated 2019)",
  "target": "T1, full length human TPH1 (Homo sapiens, UniProt P17752)",
  "T1 construct": "To generate the enzyme, full length human TPH1 is cloned into the plasmid pET20b(+); made in house; host or cells: E. coli",
  "T1 sequence (P17752 1-444)": "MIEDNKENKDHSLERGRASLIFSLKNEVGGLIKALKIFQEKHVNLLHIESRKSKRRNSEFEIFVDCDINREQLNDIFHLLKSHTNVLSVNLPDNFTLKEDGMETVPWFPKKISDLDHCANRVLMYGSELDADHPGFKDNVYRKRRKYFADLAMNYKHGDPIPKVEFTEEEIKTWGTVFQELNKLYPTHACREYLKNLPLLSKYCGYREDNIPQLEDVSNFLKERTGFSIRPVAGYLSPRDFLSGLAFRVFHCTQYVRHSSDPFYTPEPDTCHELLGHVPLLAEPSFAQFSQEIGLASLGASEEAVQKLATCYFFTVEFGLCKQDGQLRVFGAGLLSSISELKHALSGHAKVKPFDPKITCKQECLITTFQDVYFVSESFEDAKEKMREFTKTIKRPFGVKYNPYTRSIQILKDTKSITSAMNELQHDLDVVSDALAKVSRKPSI",
  "test": "Biochemical in vitro assay using fluorescence readout (TPH1 enzyme activity)",
  "source_text": "Inhibitory activities on tryptophan hydroxylase 1 have been measured for each example compound using the following procedure:\nBiochemical In Vitro Assay Using Fluorescence Readout\nTo generate the enzyme, full length human TPH1 is cloned into the plasmid pET20b(+) (Novagen) and expressed in E. coli. The bacterial cells are ruptured by sonication on ice and the lysate is cleared by centrifugation. The resulting protein in the pellet is re-extracted and TPH1 is purified from the obtained lysate by affinity chromatography using a pterin cosubstrate analog immobilized to the resin of the column. The protein is further purified by size exclusion chromatography to remove protein aggregates. The activity of TPH1 is determined by using a fluorescence assay. The enzyme activity assay is carried out at 15° C. with atmosphere oxygen for the duration of 60 minutes in a volume of 64 μl. The reaction is carried out in a 0.1M Tris-HCl buffer, adjusted to pH 7.6, containing 1 mM DTT, 0.2 mg/ml catalase, 100 μM (±)-6-methyl-5,6,7,8-tetrahydropterine dihydrochloride, 40 μM L-tryptophan, and 40-80 nM of TPH1. The reaction is started by bringing together L-tryptophan with all the other reaction substituents and stopped by quenching with perchloric acid (HClO4). The amount of 5-hydroxy-L-tryptophan produced during the enzymatic reaction is determined by fluorescence readout. Fluorescence, as determined at 540 nm when excited at 300 nm wavelength, increases proportionally to the 5-hydroxy-L-tryptophan formed. Compounds are prepared as 10 mM stock solution in DMSO, then diluted in 384-well plates using DMSO followed by a transfer of the dilutions into the assay plate. Fluorescence is measured for each well and the fluorescence at 540 nm wavelength is compared to the fluorescence of the vehicle in place of compound. Inhibitory activities of example compounds with respect to the TPH1 protein are determined by calculating the IC50 value (the concentration of compound needed to inhibit 50% of the enzyme activity). The calculated IC50 values may fluctuate depending on the daily biochemical assay performance. Fluctuations of this kind are known to those skilled in the art. In the case where IC50 values have been determined several times for the same compound, the mean is given.",
  "key": {"[1]": {"settings": "Table 1, mean where determined several times"}},
  "data": [
    {"smiles": "Cc1cnc(C2c3c(nc4n3CCCC4)CCN2C(=O)COc2ccc(N3CCCS3(=O)=O)nc2Cl)c(F)c1", "note": "(stereo not shown) [Example 1.6.5, 2-((2-chloro-6-(1,1-dioxidoisothiazolidin-2-yl)pyridin-3-yl)oxy)-1-(1-(3-fluoro-5-methylpyridin-2-yl)-3,4,6,7,8,9-hexahydroimidazo[1,2-a:5,4-c′]dipyridin-2(1H)-yl)ethanone]", "values": [
      {"measurement": "IC50", "setting": "[1]", "value": 16, "unit": "nM"}
    ]},
    {"smiles": "Cc1cnc(C2c3c(nc4n3CCCC4)CCN2C(=O)COc2ccc(N(C)S(C)(=O)=O)nc2Cl)c(F)c1", "note": "(stereo not shown) [Example 1.6.6, N-(6-chloro-5-(2-(1-(3-fluoro-5-methylpyridin-2-yl)-3,4,6,7,8,9-hexahydroimidazo[1,2-a:5,4-c′]dipyridin-2(1H)-yl)-2-oxoethoxy)pyridin-2-yl)-N-methylmethanesulfonamide]", "values": [
      {"measurement": "IC50", "setting": "[1]", "value": 44, "unit": "nM"}
    ]},
    {"smiles": "CCc1nc(C(=O)NC2CC2)ccc1OCC(=O)N1CCc2nc3n(c2C1c1ncc(C)cc1F)CCCC3", "note": "(stereo not shown) [Example 1.6.7, N-cyclopropyl-6-ethyl-5-(2-(1-(3-fluoro-5-methylpyridin-2-yl)-3,4,6,7,8,9-hexahydroimidazo[1,2-a:5,4-c′]dipyridin-2(1H)-yl)-2-oxoethoxy)picolinamide]", "values": [
      {"measurement": "IC50", "setting": "[1]", "value": 8, "unit": "nM"}
    ]},
    {"smiles": "CNC(=O)c1csc(C2c3c(nc4n3CCCC4)CCN2C(=O)COc2ccc(NS(C)(=O)=O)nc2Cl)n1", "note": "(stereo not shown) [Example 1.7.1, 2-(2-(2-((2-Chloro-6-(methylsulfonamido)pyridin-3-yl)oxy)acetyl)-1,2,3,4,6,7,8,9-octahydroimidazo[1,2-a:5,4-c′]dipyridin-1-yl)-N-methylthiazole-4-carboxamide]", "values": [
      {"measurement": "IC50", "setting": "Table 2", "value": 844, "unit": "nM"}
    ]},
    {"smiles": "CN(C(=O)c1ccc(OCC(=O)N2CCc3nc4n(c3C2c2ccc(C3CC3)cc2F)CCCC4)c(Cl)n1)C1CC1", "note": "(stereo not shown) [Example 1.8.1, 6-chloro-N-cyclopropyl-5-(2-(1-(4-cyclopropyl-2-fluorophenyl)-3,4,6,7,8,9-hexahydroimidazo[1,2-a:5,4-c′]dipyridin-2(1H)-yl)-2-oxoethoxy)-N-methylpicolinamide]", "values": [
      {"measurement": "IC50", "setting": "[1]", "value": 20, "unit": "nM"}
    ]},
    {"smiles": "O=C(COc1ccc(-c2ncco2)nc1Cl)N1CCc2nc3n(c2C1c1ccc(C2CC2)cc1F)CCCC3", "note": "(stereo not shown) [Example 1.8.2, 2-((2-chloro-6-(oxazol-2-yl)pyridin-3-yl)oxy)-1-(1-(4-cyclopropyl-2-fluorophenyl)-3,4,6,7,8,9-hexahydroimi-dazo[1,2-a:5,4-c′]dipyridin-2(1H)-yl)ethanone]", "values": [
      {"measurement": "IC50", "setting": "[1]", "value": 17, "unit": "nM"}
    ]},
    {"smiles": "CS(=O)(=O)Nc1ccc(OCC(=O)N2CCc3nc4n(c3C2c2ccc(C3CC3)cc2F)CCCC4)c(Cl)n1", "note": "(stereo not shown) [Example 1.8.3, N-(6-chloro-5-(2-(1-(4-cyclopropyl-2-fluorophenyl)-3,4,6,7,8,9-hexahydroimidazo[1,2-a:5,4-c′]dipyridin-2(1H)-yl)-2-oxoethoxy)pyridin-2-yl)methanesulfonamide]", "values": [
      {"measurement": "IC50", "setting": "[1]", "value": 22, "unit": "nM"}
    ]},
    {"smiles": "CN(C)C(=O)c1ccc(OCC(=O)N2CCc3nc4n(c3C2c2ccc(C3CC3)cc2F)CCCC4)c(Cl)n1", "note": "(stereo not shown) [Example 1.8.4, 6-chloro-5-(2-(1-(4-cyclopropyl-2-fluorophenyl)-3,4,6,7,8,9-hexahydroimidazo[1,2-a:5,4-c′]dipyridin-2(1H)-yl)-2-oxoethoxy)-N,N-dimethylpicolinamide]", "values": [
      {"measurement": "IC50", "setting": "[1]", "value": 11, "unit": "nM"}
    ]},
    {"smiles": "O=C(NC1CC1)c1ccc(OCC(=O)N2CCc3nc4n(c3C2c2ccc(C3CC3)cc2F)CCCC4)c(Cl)n1", "note": "(stereo not shown) [Example 1.8.5, 6-chloro-N-cyclopropyl-5-(2-(1-(4-cyclopropyl-2-fluorophenyl)-3,4,6,7,8,9-hexahydroimidazo[1,2-a:5,4-c′]dipyridin-2(1H)-yl)-2-oxoethoxy)picolinamide]", "values": [
      {"measurement": "IC50", "setting": "[1]", "value": 24, "unit": "nM"}
    ]},
    {"smiles": "O=C(NC1CC1)c1ccc(OCC(=O)N2CCc3nc4n(c3[C@@H]2c2ccc(C3CC3)cc2F)CCCC4)c(Cl)n1", "note": "[Example 1.8.6, (S)-6-chloro-N-cyclopropyl-5-(2-(1-(4-cyclopropyl-2-fluorophenyl)-3,4,6,7,8,9-hexahydroimidazo[1,2-a:5,4-c′]dipyridin-2(1H)-yl)-2-oxoethoxy)picolinamide]", "values": [
      {"measurement": "IC50", "setting": "[1]", "value": 9, "unit": "nM"}
    ]}
  ]
}
